Structures are written as SMILES. In brackets after ≈: the same amount, converted by molar mass. Where two headings read alike, the source gives them in different places. A value given as a limit tells only on which side of the number the result lay.

1 compound from US20050256179A1, “Selective pharmacologic inhibition of protein trafficking and related methods of treating human diseases” (priority 2003, published 2005) can be followed below.

Format in all cases: cell-based
In one experiment the test system is HSV-2. The experiment can be described thus: Spread of HSV-2 in infected cultures (glycoprotein E labeling). To be noted: 300 ng/ml applied 16 hr prior to virus inoculation. Here is the method:
The effect of AVP 893 on the spread of viral infection was further investigated. AVP 893 (at 300 ng/ml) was applied 16 hr prior to virus inoculation. Time points shown in FIG. 45 represent the hours after virus inoculation. […] In addition to the immunocytochemistry work shown in FIG. 45, extensive in vitro plaque assays were performed on HSV-1 and -2, as well as other families of virus that use the golgi in their life cycle (see Table 2).
We determined whether viral particles (as visualized in FIG. 45 by labeling HSV-2 glycoprotein E) spread beyond the initial site of infection in the presence of AVP 893. HSV-2-infected cultures were treated with AVP 893. […] Other HSV proteins including gB, gD, and the capsid protein ICP5 were also examined with similar results (data not shown). […] Furthermore, AVP 893 didn't appear to stop the initial infection of the culture, only the subsequent spread of the virus.

The subject of a further experiment is GS15. As to the kind of experiment: GS15 expression in 3T3 cells. The conditions noted are these: beginning around 2 to 4 hrs of exposure. The source says: (§1) Likewise, the non-resident golgi protein Rab6 appeared to be unaffected in some cell types, as illustrated in FIG. 31.
For a further experiment, the system named is B16F10 cells. As to the kind of experiment: Density gradient centrifugation, intracellular protein distribution. The conditions noted are these: B16 cells, 16 hours drug. The protocol: To test this possibility directly, cells were cultured with and without drug for 16-20 hours, harvested, lysed, and layered on top of a gradient of varying density iodixanol-containing fractions (2.5-30%). The gradients were centrifuged for 2 to 18 hours at 56K x g, collected, and tested for resident proteins via Western blot. Fractions were probed with antibodies specific for calnexin (ER-specific marker), γ-adaptin (golgi), and Rab5a (vesicles). […] FIGS. 34 and 35 also show the unfractionated levels of Rab6 and Rab1B, respectively, that were obtained prior to density gradient centrifugation. No difference in the expression of these 3 marker proteins was observed between the control and drug-treated cells.
B16F10 cells were seeded into 175 cm2 flasks one day prior to drug application. On the subsequent day, fresh media +/−drug was applied to the cultures. 16 hours later, the cells were washed with cold Dulbecco's PBS, then harvested in ice-cold homogenization buffer: 130 mM KCl, 25 mM NaCl, 1 mM EGTA, 25 mM Tris pH7.4, plus 15 ul protease inhibitor per 5 mL buffer. 1 mL of buffer was used per flask, and the cells were scrapped off into 14 mL round-bottom culture tubes and kept on ice. The harvested cells were then homogenized with a tissue homogenizer (Polytron PT10/35), transferred into 2 mL centrifuge tubes, and spun at 1,000 rpm for 8 min at 4° C. […]

The test system of another experiment is NCI H-460. The experiment can be described thus: Inhibition of tumor cell proliferation in vitro (SRB total protein). To be noted: Homo sapiens. Here is the method:
(§2) For a typical screening experiment, cells are inoculated into 96 well microtiter plates in 100 μl at plating densities ranging from 5,000 to 40,000 cells/well depending on the doubling time of individual cell lines. After cell inoculation, the microtiter plates are incubated at 37° C., 5% or 10% CO2—depending on the cell line and media—95% air and 100% relative humidity for 24 h prior to addition of experimental drugs. After 24 h, two plates of each cell line are fixed in situ with TCA, to represent a measurement of the cell population for each cell line at the time of drug addition. Following drug addition, the plates are incubated for an additional 48 h at 37° C., 5%/10% CO2, 95% air, and 100% relative humidity. For adherent cells, the assay is terminated by the addition of cold TCA. Cells are fixed in situ by the gentle addition of 50 μl of cold 50% (w/v) TCA (final concentration, 10% TCA) and incubated for 60 minutes at 4° C. The supernatant is discarded, and the plates are washed five times with tap water and air-dried. Sulforhodamine B (SRB) solution (10011) at 0.4% (w/v) in 1% acetic acid is added to each well, and plates are incubated for 10 minutes at room temperature. After staining, unbound dye is removed by washing five times with 1% acetic acid and the plates are air-dried. Bound stain is subsequently solubilized with 10 mM trizma base, and the absorbance is read on an automated plate reader at a wavelength of 515 nm. For suspension cells, the methodology is the same except that the assay is terminated by fixing settled cells at the bottom of the wells by gently adding 50 μl of 80% TCA (final concentration, 16% TCA). Using the seven absorbance measurements [time zero, control growth, and test growth in the presence of drug at the five concentration levels], the percentage growth is calculated at each of the drug concentrations levels.
(§3) Brefeldin A was tested by the NCI for inhibition of tumor cell proliferation in the 60-cell screen. The NCI 60-cell screen was performed essentially as described for FIG. 9. Data available from the NCI database for Brefeldin A was compared with more recent AVP 893 data. […] Several tumor cell lines were cultured in the presence of either AVP 893 or Brefeldin A for about 72 hours before assessing proliferation response by measuring total protein (SRB), as described for FIG. 9. The results of the head-to-head comparisons performed in-house also show substantial variation in the relative proliferative responses of cells to Brefeldin A and AVP 893 in vitro (TABLE 3).

In the next experiment the test system is OVCAR3. The description is as above. To be noted: Homo sapiens. The protocol: as §2, §3
The next experiment concerns HCC 1806. The experiment is described as above. The conditions noted are these: Homo sapiens, HCC1806, 72 h, in-house head-to-head, about 72 hours, read-out: IC50. Here is the method:
as §2, §3

Another experiment concerns Hs578T. The description is as above. To be noted: Homo sapiens, Hs-578T. The protocol: as §2, §3
For a further experiment, the system named is MOLT-4. Described as above. The conditions noted are these: Homo sapiens. The protocol: as §2, §3
Another experiment has as its system SW480. Described as above. To be noted: Homo sapiens, column Avanir, read-out: IC50 (ng/ml), Avanir. Here is the method: as §2, §3
The test system of another experiment is GM-130. As to the kind of experiment: GM-130 expression. The conditions noted are these: data not shown.
Excerpt: as §1

[1] abbreviates: column Avanir, read-out: IC50 (ng/ml), Avanir.
Setting [2] is: column NCI, read-out: IC50 (ng/ml), NCI.
Where [3] appears, read: in-house head-to-head, about 72 hours, SRB, read-out: IC50.

`O=C(Nc1ccc(-c2nc3cc(NC(=O)C4CCCCC4)ccc3[nH]2)cc1)C1CCCCC1` [AVP 893]: the “spread of HSV-2 beyond the initial site of infection” value with HSV-2 was “blocked the spread of HSV-2 virus particles”. Further, the GS15 staining result in the experiment with GS15 is on record as “greatly diminished”. Also, the “distribution of Rab 1b and Rab 6 in gradient fractions” value with B16F10 cells is “retained in the ER at the expense of the golgi compartment”. Further, the IC50 with NCI H-460 (NCI-H460, column Avanir, read-out: IC50 (ng/ml), Avanir) was more than 2000 ng/mL; in the experiment on NCI H-460 (NCI-H460, column NCI, read-out: IC50 (ng/ml), NCI) it was 400 ng/mL (≈ 900 nM); in the experiment on NCI H-460 (NCI-H460, in-house head-to-head, about 72 hours, SRB, read-out: IC50), more than 3000 ng/mL; in the experiment with OVCAR3 (OVCAR-3, column Avanir, read-out: IC50 (ng/ml), Avanir) it was 200 ng/mL (≈ 450 nM); in the experiment with OVCAR3 (OVCAR-3, column NCI, read-out: IC50 (ng/ml), NCI) it was 1000 ng/mL (≈ 2250 nM); with HCC 1806, 4 ng/mL (≈ 9 nM). In addition, the IC50 in the experiment on Hs578T (setting [1]) is 2 ng/mL (≈ 4.5 nM); in the experiment with Hs578T (setting [2]), less than 10 ng/mL; in the experiment with Hs578T (setting [3]) it was less than 1 ng/mL; with MOLT-4 (setting [1]), 0.001 ng/mL (≈ 0.00225 nM); with MOLT-4 (setting [2]), less than 10 ng/mL; in the experiment with MOLT-4 (setting [3]), 30 ng/mL (≈ 67.5 nM). The IC50 in the experiment on SW480 stood at 1500 ng/mL (≈ 3370 nM). In addition, the GM-130 expression result in the experiment with GM-130 is reported as “did not appear to be affected”.
